Source: US20210395327A1, “Growth Hormone-Releasing Hormone Antagonists and Uses Thereof” (United States Government As Represented By The Department …, priority 2019, published 2021)
“Also recorded” adds a separate entry of the source. Non-standard residues stand in square brackets, D forms with d. Residues, ends and D or L forms follow the SMILES beside them. *: point of attachment. Phe(F5) = N[C@@H](Cc1c(F)c(F)c(F)c(F)c1F)C(=O)O; hArg = N=C(N)NCCCC[C@H](N)C(=O)O; 12Ado = NCCCCCCCCCCCC(=O)O; Nle = CCCC[C@H](N)C(=O)O; Orn = NCCC[C@H](N)C(=O)O; Abu = CC[C@H](N)C(=O)O; PhAc = O=C(Cc1ccccc1)*

Columns and labels:
Format in all cases: in vivo, C57Bl/6J mice
[1] = test system: bleomycin-induced lung inflammation and fibrosis; assay: Bleomycin mouse model, lung histopathology scores; details: bleomycin-treated mice
Description: (§1) Abstract. Purpose. Growth hormone-releasing hormone (GHRH) is a 44-amino acid peptide that regulates growth hormone (GH) secretion. It was tested whether a GHRH receptor (GHRH-R) antagonist, MIA-602, would inhibit bleomycin-induced lung inflammation and/or fibrosis in C57Bl/6J mice. Methods. It was tested whether MIA-602 (5 μg or vehicle given subcutaneously [SC] on days 1-21) would decrease lung inflammation (at day 14) and/or fibrosis (at day 28) in mice treated with intraperitoneal (IP) bleomycin (0.8 units on days 1, 3, 7, 10, 14 and 21). […] Results. Inflammation (histopathologic scores assessed blindly) was less evident in mice treated with MIA-602 for 14 days. […] GHRH-R antagonist increased basal and maximal oxygen consumption of cultured lung fibroblasts. […] Conclusions. MIA-602 reduced lung inflammation and fibrosis due to bleomycin.
(§2) Experimental animals. 8-week old C57Bl/6J male mice (The Jackson Laboratory, Bar Harbor, Me.) were used in these experiments. Mice weighed about 26 grams at the start. Mice were randomly allocated to the experimental groups and housed in identical filter top cages in a ventilated rack. Mice were exposed to a 12-hour light/dark cycle and had free access to standard laboratory chow and water.
Bleomycin and GHRH-R antagonist treatment. Mice were treated with 0.8 units of bleomycin (Bleomycin for Injection USP, Hospira, Lake Forest, Ill.) intraperitoneally (IP) on days 1, 3, 7, 10, 14 and 21 (Collins S, Chan-Li Y, Oh M, Vigeland C, Limjunyawong N, Mitzner W, Powell J D, Horton M R (2016). JCI Insight 1(4):1-13). Mice (randomly assigned) were simultaneously treated subcutaneously (sc) with MIA-602 (5 μg/day) or its vehicle (100 μL/day). MIA-602 was dissolved in DMSO (ACS grade; Sigma-Aldrich) and diluted 1:500 in normal saline for daily sc injection on days 0-21.
Tissue preparations. Mice were killed by CO2 inhalation before any treatment, or on days 14 or 28 for micro-CT scans of lungs and harvesting of lung tissue (Vande Vel de G, Poelmans J, De Langhe E, Hillen A, Vanoirbeek J, Himmelreich U, Lories R (2016). Dis Model Mech 9:91). The right mainstem bronchus was ligated and the right lung removed and frozen at −80° C. for hydroxyproline (HP) assays. The left lung was filled with 10% buffered formalin at […] cm H2O pressure, the bronchus ligated, and the lung fixed in formalin. Fixed lungs were embedded in wax and 5 μm sections stained with hematoxylin and eosin (H&E) or Masson's trichrome stain.
Lung histopathology. Fibrosis was quantified in trichrome-stained sections using a modification of the Ashcroft score that describes grades of fibrosis. Inflammation in lung tissue was quantified in H&E stained sections (Hubner R, Gitter W, El Mokhtari N, Mathiak M, Both M, Bolte H, Freitag-Wolf S, Bewig B (2008). Biotechniques 44:507-517).
Data analysis. Data are reported as arithmetic means±SEM or SD as indicated. Confidence intervals (5-95%) and ranges were used to describe histopathological scores. ANOVA followed by Dunnett's test or the Bonnferoni correction was used for multiple comparisons with a control or among groups (Kusuoka H, Hoffman J (2002). Circ Res 91:662-671). At least six mice were planned to be available at each time point in each group, so that there would be sufficient power to detect a 20% change in lung hydroxyproline given an assumed coefficient of variance of 0.2. P≤0.05 was considered significant.

[2] = test system: bleomycin-induced lung fibrosis (lung hydroxyproline content); assay: Bleomycin mouse model, lung hydroxyproline assay; details: bleomycin IP
Description: as §1
as §2, with “water. […]” for “water.”
Hydroxyproline assay. […] Hydroxyproline was measured colorimetrically (560 nm) after hydrolysis using an assay kit (MAK008, Sigma-Aldrich, St. Louis, Mo.). […]

[3] = test system: gene expression in mouse lung tissue; assay: RNAseq and pathway analysis of lung tissue of bleomycin-treated mice; details: bleomycin 28 days, MIA-602 vs vehicle
Description: RNA isolation. RNA was extracted from fixed lung tissue in paraffin blocks using a Quick-RNA™ FFPE Kit (R1008, Zymo Research, Irvine, Calif.) following the manufacturer's protocol (Patel P, Selvarajah S, Guerard K, Bartlett J, Lapointe J, Berman D, Okello J, Park P (2017). PLoS ONE 12:e0179732). Samples were deparaffinized, digested with proteinase K and decrosslinked at 65° C. for 15 minutes. RNA lysis buffer was added and mixed with ethanol. The mixtures were transferred to spin columns to isolate total RNA.
RNAseq and Pathway analyses. At least 10 ng of total RNA was used as input for the KAPA RNA HyperPrep Kit with RiboErase (HMR) to create ribosomal RNA-depleted sequencing libraries, including sample indexing, to allow for multiplexing. Cluster generation and sequencing was done on the Illumina cBOT and HiSeq 3000 using reagents provided by Illumina, finally generating >32 million single-end 100 base reads per sample.
De-multiplexed FASTQ files were created with Illumina supplied scripts in BCL2FASTQ software (v2.17). […]
Gene counts were normalized using trimmed mean of M-values (TMM) method. Differential expression between groups was calculated with the exact test implemented in edgeR (Robinson M, McCarthy D, Smyth G (2010). Bioinformatics 26:139-140). […]

CCCC[C@H](NC(=O)[C@@H](NC(=O)[C@H](CC(=O)O)NC(=O)[C@H](CCC(N)=O)NC(=O)[C@H](CC(C)C)NC(=O)[C@H](CC(C)C)NC(=O)[C@H](CCCN)NC(=O)[C@H](Cc1c[nH]cn1)NC(=O)[C@H](C)NC(=O)[C@H](CO)NC(=O)[C@H](CC(C)C)NC(=O)[C@H](CCC(N)=O)NC(=O)[C@H](CC)NC(=O)[C@H](CC(C)C)NC(=O)[C@@H](NC(=O)[C@H](CCCN)NC(=O)[C@H](Cc1c[nH]cn1)NC(=O)[C@H](Cc1ccc(OC)cc1)NC(=O)[C@H](CCCCNC(=N)N)NC(=O)[C@H](C)NC(=O)[C@@H](NC(=O)[C@H](Cc1c(F)c(F)c(F)c(F)c1F)NC(=O)[C@@H](NC(=O)[C@H](C)NC(=O)[C@H](CC(=O)O)NC(=O)[C@@H](CCCNC(=N)N)NC(=O)[C@H](Cc1ccc(O)cc1)NC(=O)CCCCCCCCCCCNC(=O)Cc1ccccc1)[C@@H](C)CC)[C@@H](C)O)C(C)C)[C@@H](C)CC)C(=O)N[C@H](CCCNC(=N)N)C(=O)N[C@@H](CCCCNC(=N)N)C(N)=O [MIA-602, PhAC-Ada, Tyr D-Arg, Asp, Ala, Ile, 5FPhe, Thr, Ala, Har, Tyr(Me), His, Orn, Val, Leu, Abu, Gin, Leu, Ser, Ala, His, Om, Leu, Leu, Gin, Asp, Ile; Nle, D-Arg, Har NH2, reference compound] ({PhAc-12Ado}-Y[dR]DAI[Phe(F5)]TA[hArg]Y(Me)H[Orn]VL[Abu]QLSAH[Orn]LLQDI[Nle][dR][hArg]-NH2)
lung inflammation histopathologic score, 5%-95% CI ([1]; after 14 days, n=4): 0.4-1.4 | lung inflammation histopathologic score, range ([1]; after 14 days, n=4): 0.6-1.2 | lung fibrosis histopathologic score (modified Ashcroft), 5%-95% CI ([1]; after 28 days, n=5): 1.1-2.9 | lung fibrosis histopathologic score (modified Ashcroft), range ([1]; after 28 days, n=5): 1.0-3.0 | lung fibrosis, histopathology (in words) ([1]; MIA-602 vs vehicle): decreased; also recorded: Less fibrosis appeared to be present | lung inflammation, histopathology (in words) ([1]; MIA-602 vs vehicle): decreased; also recorded: Less inflammation appeared to be present | lung hydroxyproline (HP) content, change (in words) ([2]; 14 days, MIA-602 5 μg/day sc): did not increase significantly | lung hydroxyproline (HP) content, change (in words) ([2]; 28 days, MIA-602 5 μg/day sc days 1-21, right lung): increased significantly in bleomycin-treated mice that received vehicle, but not in bleomycin-treated mice that received MIA-602; also recorded: No significant increase in HP content | lung gene expression, RNA-seq pathway analysis (in words) [3]: suppression of the adaptive immune response, T cell differentiation and activation and cytokine production; also recorded: downregulation of T cell receptor complex genes (CD3E, CD3G, CD4, and CD8A)
